How the values were obtained:
[1] = system: spontaneously hypertensive rats (SHR); assay: in vivo blood pressure regulation by a single administration (systolic pressure); set-up: species or system rat
Procedure: To investigate in vivo blood pressure regulation effect of the functional peptide separated from the oyster enzyme hydrolysate by a single administration, the peptide was administered to the hypertension animal model once (single administration), followed by the investigation of blood pressure.
Particularly, male spontaneously hypertensive rats (SHR; Central Lab. Animal Inc.) at 11 weeks and Wistar rats (Central Lab. Animal Inc.) were purchased, which were raised in a laboratory animal room in which the temperature was regulated at 22±3° C., the humidity was controlled at 50±5%, and the light/dark cycle was set at 12 h/12 h. Feeds and drinking water were provided freely. After a week of adaptation, the animals were divided into the experimental and the control groups and used for the experiment according to the guide line of Association for Assessment and Accreditation of Laboratory Care International approved by Institutional Animal Care and Use Committee, Kyunghee University College of Pharmacy. […] Then the animals were fixed for 20 minutes in a rat temperature control unit in which the temperature was maintained at 42° C. at the time point of 0, 3, 6, 9, 12, and 24 h, to let the tail vessel fully expanded. Then, systolic pressure was measured to investigate the antihypertensive activity.

[2] = system: spontaneously hypertensive rats (SHR); assay: in vivo blood pressure regulation by the repeated administration (systolic pressure); set-up: species or system rat; conditions: oral, daily for 4 weeks, hydrolysate 100 mg/kg, YA 50 μg/kg
Procedure: To investigate in vivo blood pressure regulation effect of the functional peptide separated from the oyster enzyme hydrolysate by the repeated administration, the peptide was administered to the hypertension animal model repeatedly, followed by the investigation of blood pressure.
(§1) Particularly, the same rats as described in Example <5-2> were purchased and raised under the same condition. […] Systolic pressure was measured by the same manner as described in Example <5-2> on week 0, week 1, week 2, week 3, and week 4. […] The blood sample was centrifuged at 3,000 rpm for 10 minutes, and as a result serum was obtained and stored at −80° C. The levels of blood ACE and angiotensin-II in the stored serum were measured by using a commercial ELISA kit (USCN Life Science, China) according to the manufacturer's protocol.

blood ACE = assay: level of blood ACE in serum by ELISA after repeated administration; format: in vivo, rat; conditions: SHR serum after 4 weeks of oral administration, compared with negative control
Procedure: as §1

blood angiotensin-II = assay: level of blood angiotensin-II in serum by ELISA after repeated administration; format: in vivo, rat; conditions: SHR serum after 4 weeks of oral administration, compared with negative control
Procedure: as §1

[3] = system: mild hypertension patients; conditions: Shimizu 1994; cited from earlier work

C[C@H](NC(=O)[C@@H](N)Cc1ccc(O)cc1)C(=O)O [YA, tyrosine-alanine]
blood pressure lowering effect after 6 hours from the administration ([1]; 50 μg/kg, 6 hours): 33.9%
blood pressure on repeated administration (in words) [2]: blood pressure did not increase for 2 weeks
level of blood ACE (in words) (blood ACE): significantly decreased
level of blood angiotensin-II (in words) (blood angiotensin-II): significantly decreased

valine-tyrosine [Val-Tyr]
activity of reducing blood pressure (in words) [3]: activity of reducing blood pressure

C[C@H](CS)C(=O)N1CCC[C@H]1C(=O)O [Captopril, reference compound]
blood pressure lowering effect ([1]; by the negative control, Captopril 8 mg/kg, hydrolysate 100 mg/kg): 18˜19%

From patent publication US10308681B2, “Pharmaceutical composition for the prevention and treatment of cardiovascular disease comprising the peptide having the ability to inhibit angiotensin-1 converting enzyme as an active ingredient” (University-Industry Cooperation Group of Kyung Hee …, priority 2012, dated 2019)
